Organism: Rattus norvegicus
Test: Open TG-GATES - Regimen: Daily Repeat
Format: toxicity, organism-based, Sprague-Dawley
Parameters: regimen Daily Repeat, gender Male, age 6 weeks
Settings: in vivo, po, 1 mg/kg, route gavage, dose level Low; for APTT / Bas / Eos / Fbg / Hb / Ht / Lym / MCH / MCHC / MCV / Mono / Neu / PT / Plat / RBC / Ret / WBC: tissue Blood; for KIDNEY_L / KIDNEY_R / KIDNEY_TOTAL: tissue Kidney; for LIVER: tissue Liver; for A/G / ALP / ALT / AST / BUN / CRE / Ca / Cl / DBIL / GLC / IP / K / LDH / Na / PL / RALB / TBIL / TC / TG / TP / gamma-GTP: tissue Plasma

Compound: O=NN(CCCl)C(=O)NC1CCCCC1 [LOMUSTINE]
- TERMINAL_BW (72 h, time 3 day): 228.6 g
- APTT (72 h, time 3 day): 15.3 s
- Bas (72 h, time 3 day): 0%
- Eos (72 h, time 3 day): 0.8%
- Fbg (72 h, time 3 day): 224.2 mg/dL
- Hb (72 h, time 3 day): 12.9 g/dL
- Ht (72 h, time 3 day): 38.5%
- Lym (72 h, time 3 day): 81.2%
- MCH (72 h, time 3 day): 21.6 pg
- MCHC (72 h, time 3 day): 33.4%
- MCV (72 h, time 3 day): 64.8 fL
- Mono (72 h, time 3 day): 7.6%
- Neu (72 h, time 3 day): 10.2%
- PT (72 h, time 3 day): 11.8 s
- Plat (72 h, time 3 day): 108.2 x10_4/uL
- RBC (72 h, time 3 day): 594.4 x10_4/ul
- Ret (72 h, time 3 day): 8.5%
- WBC (72 h, time 3 day): 121.5 x10_2/uL
- KIDNEY_L (72 h, time 3 day): 1.1 g
- KIDNEY_R (72 h, time 3 day): 1.1 g
- KIDNEY_TOTAL (72 h, time 3 day): 2.2 g
- LIVER (72 h, time 3 day): 11.3 g
- A/G (72 h, time 3 day): 2.2
- ALP (72 h, time 3 day): 863 IU/L
- ALT (72 h, time 3 day): 30 IU/L
- AST (72 h, time 3 day): 62 IU/L
- BUN (72 h, time 3 day): 16 mg/dL
- CRE (72 h, time 3 day): 0.5 mg/dL
- Ca (72 h, time 3 day): 11.1 mg/dL
- Cl (72 h, time 3 day): 105 meq/L
- DBIL (72 h, time 3 day): 0.022 mg/dL
- GLC (72 h, time 3 day): 188 mg/dL
- IP (72 h, time 3 day): 8.1 mg/dL
- K (72 h, time 3 day): 4.9 meq/L
- LDH (72 h, time 3 day): 78 IU/L
- Na (72 h, time 3 day): 138.6 meq/L
- PL (72 h, time 3 day): 144 mg/dL
- RALB (72 h, time 3 day): 3.9 g/dL
- TBIL (72 h, time 3 day): 0.3 mg/dL
- TC (72 h, time 3 day): 79.2 mg/dL
- TG (72 h, time 3 day): 85.8 mg/dL
- TP (72 h, time 3 day): 5.7 g/dL
- gamma-GTP (72 h, time 3 day): 1 IU/L
- TERMINAL_BW ([…], time 7 day): 255.7 g
- TERMINAL_BW ([…], time 14 day): 313 g
- TERMINAL_BW ([…], time 28 day): 386.4 g
- APTT ([…], time 7 day): 16.6 s
- Bas ([…], time 7 day): 0%
- Eos ([…], time 7 day): 0.6%
- Fbg ([…], time 7 day): 235.2 mg/dL
- Hb ([…], time 7 day): 13.3 g/dL
- Ht ([…], time 7 day): 39.5%
- Lym ([…], time 7 day): 80%
- MCH ([…], time 7 day): 21.3 pg
- MCHC ([…], time 7 day): 33.6%
- MCV ([…], time 7 day): 63.6 fL
- Mono ([…], time 7 day): 7.4%
- Neu ([…], time 7 day): 12.4%
- PT ([…], time 7 day): 11.7 s
- Plat ([…], time 7 day): 109.6 x10_4/uL
- RBC ([…], time 7 day): 621.2 x10_4/ul
- Ret ([…], time 7 day): 6.3%
- WBC ([…], time 7 day): 117.4 x10_2/uL
- APTT ([…], time 14 day): 16.9 s
- Bas ([…], time 14 day): 0%
- Eos ([…], time 14 day): 0.6%
- Fbg ([…], time 14 day): 235 mg/dL
- Hb ([…], time 14 day): 13.9 g/dL
- Ht ([…], time 14 day): 41.4%
- Lym ([…], time 14 day): 83.4%
- MCH ([…], time 14 day): 20.8 pg
- MCHC ([…], time 14 day): 33.6%
- MCV ([…], time 14 day): 61.9 fL
- Mono ([…], time 14 day): 4.8%
- Neu ([…], time 14 day): 11.4%
- PT ([…], time 14 day): 11.5 s
- Plat ([…], time 14 day): 119.3 x10_4/uL
- RBC ([…], time 14 day): 669.6 x10_4/ul
- Ret ([…], time 14 day): 5.5%
- WBC ([…], time 14 day): 116.8 x10_2/uL
- APTT ([…], time 28 day): 16.6 s
- Bas ([…], time 28 day): 0%
- Eos ([…], time 28 day): 1.2%
- Fbg ([…], time 28 day): 225 mg/dL
- Hb ([…], time 28 day): 15.1 g/dL
- Ht ([…], time 28 day): 45.4%
- Lym ([…], time 28 day): 82%
- MCH ([…], time 28 day): 19 pg
- MCHC ([…], time 28 day): 33.3%
- MCV ([…], time 28 day): 57.1 fL
- Mono ([…], time 28 day): 5.4%
- Neu ([…], time 28 day): 11.8%
- PT ([…], time 28 day): 11.6 s
- Plat ([…], time 28 day): 109.6 x10_4/uL
- RBC ([…], time 28 day): 797.4 x10_4/ul
- Ret ([…], time 28 day): 2.6%
- WBC ([…], time 28 day): 167.6 x10_2/uL
- KIDNEY_L ([…], time 7 day): 1.2 g
- KIDNEY_R ([…], time 7 day): 1.2 g
- KIDNEY_TOTAL ([…], time 7 day): 2.3 g
- KIDNEY_L ([…], time 14 day): 1.3 g
- KIDNEY_R ([…], time 14 day): 1.2 g
- KIDNEY_TOTAL ([…], time 14 day): 2.5 g
- KIDNEY_L ([…], time 28 day): 1.3 g
- KIDNEY_R ([…], time 28 day): 1.4 g
- KIDNEY_TOTAL ([…], time 28 day): 2.7 g
- LIVER ([…], time 7 day): 12.4 g
- LIVER ([…], time 14 day): 14.7 g
- LIVER ([…], time 28 day): 16.7 g
- A/G ([…], time 7 day): 2
- ALP ([…], time 7 day): 865.2 IU/L
- ALT ([…], time 7 day): 35.2 IU/L
- AST ([…], time 7 day): 61.6 IU/L
- BUN ([…], time 7 day): 17.6 mg/dL
- CRE ([…], time 7 day): 0.5 mg/dL
- Ca ([…], time 7 day): 10.9 mg/dL
- Cl ([…], time 7 day): 106 meq/L
- DBIL ([…], time 7 day): 0.018 mg/dL
- GLC ([…], time 7 day): 195.2 mg/dL
- IP ([…], time 7 day): 7.5 mg/dL
- K ([…], time 7 day): 4.8 meq/L
- LDH ([…], time 7 day): 87.8 IU/L
- Na ([…], time 7 day): 139.6 meq/L
- PL ([…], time 7 day): 148.2 mg/dL
- RALB ([…], time 7 day): 3.9 g/dL
- TBIL ([…], time 7 day): 0.3 mg/dL
- TC ([…], time 7 day): 79.2 mg/dL
- TG ([…], time 7 day): 71.4 mg/dL
- TP ([…], time 7 day): 5.9 g/dL
- gamma-GTP ([…], time 7 day): 1.2 IU/L
- A/G ([…], time 14 day): 2
- ALP ([…], time 14 day): 821 IU/L
- ALT ([…], time 14 day): 26.2 IU/L
- AST ([…], time 14 day): 56.8 IU/L
- BUN ([…], time 14 day): 19.2 mg/dL
- CRE ([…], time 14 day): 0.5 mg/dL
- Ca ([…], time 14 day): 11.3 mg/dL
- Cl ([…], time 14 day): 106.6 meq/L
- DBIL ([…], time 14 day): 0.01 mg/dL
- GLC ([…], time 14 day): 184.4 mg/dL
- IP ([…], time 14 day): 7.4 mg/dL
- K ([…], time 14 day): 4.8 meq/L
- LDH ([…], time 14 day): 84.6 IU/L
- Na ([…], time 14 day): 139.8 meq/L
- PL ([…], time 14 day): 175.2 mg/dL
- RALB ([…], time 14 day): 4 g/dL
- TBIL ([…], time 14 day): 0.3 mg/dL
- TC ([…], time 14 day): 83.2 mg/dL
- TG ([…], time 14 day): 141.4 mg/dL
- TP ([…], time 14 day): 6.1 g/dL
- gamma-GTP ([…], time 14 day): 1.8 IU/L
- A/G ([…], time 28 day): 1.8
- ALP ([…], time 28 day): 696.4 IU/L
- ALT ([…], time 28 day): 52.8 IU/L
- AST ([…], time 28 day): 103.6 IU/L
- BUN ([…], time 28 day): 20.4 mg/dL
- CRE ([…], time 28 day): 0.4 mg/dL
- Ca ([…], time 28 day): 10.9 mg/dL
- Cl ([…], time 28 day): 105.6 meq/L
- DBIL ([…], time 28 day): 0.006 mg/dL
- GLC ([…], time 28 day): 195.2 mg/dL
- IP ([…], time 28 day): 6.5 mg/dL
- K ([…], time 28 day): 4.5 meq/L
- LDH ([…], time 28 day): 172.8 IU/L
- Na ([…], time 28 day): 139.6 meq/L
- PL ([…], time 28 day): 165.2 mg/dL
- RALB ([…], time 28 day): 4.2 g/dL
- TBIL ([…], time 28 day): 0.3 mg/dL
- TC ([…], time 28 day): 78.6 mg/dL
- TG ([…], time 28 day): 139.8 mg/dL
- TP ([…], time 28 day): 6.5 g/dL
- gamma-GTP ([…], time 28 day): 1.6 IU/L
